Data published in patent publication US20060166941A1, “Treatment and/or prevention of non-viral epithelial damage” (Epistem Limited, priority 2003, published 2006).
“And” between values parts separate entries of the source, which are not always exact repeats. Equal entries are not always repeated. Structures can show the parent of a compound that is named as a salt.

Key:
[1] = test system: clonogenic stem cells of the digestive epithelium; assay: In vivo protection of intestinal epithelium clonogenic stem cells, radiation damage, independent experiment 2; set-up: species or system mice; conditions: for corrected crypts/circumference / no. crypts/circumference: day 4; for Protection Factor: 13Gy, corrected crypts treated / vehicle
From the text: In Vivo Protection of Intestinal Epithelium Clonogenic Stem Cells—Radiation Damage Independent Experiment 2.
The ability of foscarnet (phosphonoformic acid trisodium salt hexahydrate) to prevent radiological damage to clonogenic stem cells of the digestive epithelium was illustrated by the following experiment.
The model of radiological insult used was treatment with 13 Gy X-ray whole body radiation at a dose rate of 0.7 Gy/minute. Such radiation treatment provides a model of radiotherapy administered to patients undergoing treatment for cancer.
Three experimental groups, each of six mice, were established as set out below:
Group 1: Received intra-peritoneal injection, containing 50 mg foscarnet/kilogram bodyweight, in sterile water, one hour prior to radiation treatment. Received one further identical injection on each of the three days following radiation treatment.
Group 2: Received intra-peritoneal injection, containing 25 mg foscarnet/kilogram bodyweight, in sterile water, one hour prior to radiation treatment. Received one further identical injection on each of the three days following radiation treatment.
Group 3: Vehicle control. Received intra-peritoneal injection, of sterile water, one hour prior to radiation treatment. Received one further identical injection on each of the three days following radiation treatment.
On the fourth day after treatment the animals of each group were killed, and intestinal tissue harvested for histological analysis. Tissue sections were stained with haemotoxylin and eosin, and were analysed for the presence of regenerating intestinal crypts. Regenerating intestinal crypts are derived from one or more surviving clonogenic stem cells, whereas sterilised crypts (containing no surviving stem cells) disappear within two days of irradiation. The number of regenerating crypts per intestinal circumference was counted, and the mean crypt width measured. Scores for each animal were then corrected to account for the probability of preferentially scoring larger crypts according to the following equation: [formula]
For each treatment a Protection Factor was calculated using the following equation: corrected crypts/circumference treated corrected crypts/circumference untreated (vehicle)

intestinal crypt cells = assay: Epithelial cell kinetic evaluation following oral administration (BrdUrd labelling, tolerability); format: in vivo; conditions: 500 mg/kg oral gavage once a day for 4 days
Protocol: Epithelial Cell Kinetic Evaluation Following Oral Administration of Foscarnet Phosphonoformic Acid Trisodium Salt Hexahydrate).
Intestinal epithelial cell stimulation following an oral application of foscarnet (phosphonoformic acid trisodium salt hexahydrate) was illustrated by the following experiment.
Two experimental groups, each of three mice, were established as set out below:
Group 1: Received oral gavage, containing 500 mg foscarnet/kilogram bodyweight, in sterile water, once a day for 4 days. On the fifth day the animals received a pulse of 10 mg Bromodeoxyuridine (BrdUrd) and 40 minutes laster were killed and small intestine and kidneys harvested for analysis.
Group 2: Received oral gavage of sterile water, once a day for 4 days On the fifth day the animals received a pulse of 10 mg Bromodeoxyuridine and 40 minutes laster were killed and small intestine and kidneys harvested for analysis.
Slides were immunohistochemically labelled for BrdUrd and counterstained with thionin to assess intestinal epithelial cell kinetic changes with oral administration of foscarnet. To assess epithelial cell kinetic changes, 50 small intestinal crypts per animal were quantified on a cell positional basis for the number of positively labelled S-phase cells at each cell position in the crypt. Quantification starts at the bottom of the crypt (cell position 1) and continues up one side of the crypt assessing each cell in turn to the crypt villus junction.

[2] = 13Gy plus 25 mg foscarnet -1 hr, 1, 2, 3 day, group Average
[3] = 13Gy plus 25 mg foscarnet -1 hr, 1, 2, 3 day, individual mice
[4] = 13Gy plus 50 mg foscarnet -1 hr, 1, 2, 3 day, group Average
[5] = 13Gy plus 50 mg foscarnet -1 hr, 1, 2, 3 day, individual mice

O=C(O)P(=O)(O)O [foscarnet, phosphonoformic acid trisodium salt hexahydrate]
corrected crypts/circumference [1, 2]: 2.8
no. crypts/circumference [1, 2]: 5.7
corrected crypts/circumference [1, 3]: 1.4 and 2.0 and 2.7 and 4.4 and 3.0 and 3.3
no. crypts/circumference [1, 3]: 2.6 and 4.1 and 5.4 and 9.4 and 6.3 and 6.4
corrected crypts/circumference [1, 4]: 4.7
no. crypts/circumference [1, 4]: 8.8
corrected crypts/circumference [1, 5]: 6.5 and 4.4 and 2.7 and 1.9 and 5.4 and 7.5
no. crypts/circumference [1, 5]: 11.8 and 8.7 and 5.2 and 4.1 and 9.6 and 13.2
Protection Factor ([1]; 25 mg foscarnet -1 hr, 1, 2, 3 day): 1.12
Protection Factor ([1]; 50 mg foscarnet -1 hr, 1, 2, 3 day): 1.88
more crypts compared to mice treated with vehicle alone ([1]; 13 Gy, 50 mg/kg foscarnet): ~50%
more small intestinal clonogenic stem cells survived ([1]; 13 Gy, 50 mg/kg foscarnet): at least 50%
numbers of intestinal crypts after exposure to radiation ([1]; Groups 1 and 2 (50 mg foscarnet and 25 mg foscarnet), 13 Gy): increased numbers of intestinal crypts
deaths or signs of illness (intestinal crypt cells): no deaths or signs of illness
tolerability of relatively high oral doses (intestinal crypt cells): tolerated without notable toxicity
kidney damage judged by histological sectioning (intestinal crypt cells; end of treatment period): neither of the groups showed overt signs of kidney damage
BrdUrd labelling index in intestinal crypt cells (FIG. 5) (intestinal crypt cells; versus vehicle control): stimulating effect on intestinal crypt cells
